Test results from US10226445B2, “Pharmaceutical preparations” (Symrise AG, priority 2013, dated 2019).

Tested on: HGT-1 cells
Experiment: Intracellular pH / proton secretion of HGT-1 cell cultures (SNARF-1-AM dye)
Format: cell-based, human
Details: for proton secretion in the HGT-1 cells (in words): substances of group (b), Tables 1A and 1B; for activation at 30 µM: 0.03 mM substance of group (a) alone; for activation at 300 µM: 0.3 mM substance of group (a) alone; for stimulation of proton secretion by 3 mM caffeine or 0.3 mM theobromine (in words): additional administration at a concentration of 0.3 mM; for induced gastric acid secretion (in words): preparations with caffeine and/or theobromine as component (b)
Description: Human parietal cells, also known as human gastric tumor cell line (HGT-1), are used as cell model. These were provided by Dr. C. Laboisse (Laboratory of Pathological Anatomy, Nantes, France). The cells were cultured under standard conditions at 37° C., 5% CO2 in DMEM (Dulbecco's Modified Eagle's Medium) with 4 g/l glucose, 10% FBS, 2% L-glutamine and 1% penicillin/streptomycin. For the measurement of the intracellular proton concentration, the cells are treated with trypsin/EDTA, the viability determined by means of trypan blue staining and 100 000 cells/well seeded in black 96-well plates.
To measure the intracellular pH, the dye 1,5-carboxyseminaphthorhodafluoro acetoxymethyl ester (SNARF-1-AM) is used. The cells in the 96-well plates are washed once with Krebs-Hepes buffer (KRHP) and incubated at 37° C. and 5% CO2 for 30 min with the dye dissolved in KRHP at a concentration of 3 μM. The cells are then washed twice with KRHP and substances of group (b), for example 3 mM caffeine or 0.3 mM theobromine, alone or in combination with substances of group (a), for example, homoeriodictyol (HED) or eriodictyol or matairesinol, lariciresinol or enterolactone, are applied in volumes of 100 μl at various concentrations in phenol red-free DMEM; as additional control experiments, the abovementioned substances of group (a) are tested alone. Homoeriodictyol is dissolved in double-distilled water while eriodictyol, matairesinol, lariciresinol or enterolactone are dissolved in ethanol (EtOH). The final concentration of solvent which is added to the cells is at most 1%. The fluorescent dye is excited at a wavelength of 488 nm and the emission measured at 580 nm and 640 nm. The ratio of the fluorescence values at 580 nm to 640 nm is compared to a calibration curve from which the pH can be determined. For the calibration curve, the cells are treated with a potassium phosphate buffer of different pH values from pH 7.2-8.2 and 2 μM nigericin. Nigericin equilibrates the intracellular and extracellular pH such that the intracellular pH may be defined. The intracellular H^+ concentration is determined from the intracellular pH. The intracellular proton index (IPX) is calculated by log 2 transformation of the ratio of treated cells and untreated cells (control). […] The number of replicates specified refers to the technical replicates (tr) or the number or total replicates (n), which results from the number of technical replicates multiplied by the number of biological replicates.

[1] = 0.03 mM substance of group (a) in combination with 3 mM caffeine, 10 minutes
[2] = 0.3 mM substance of group (a) in combination with 3 mM caffeine, 10 minutes
[3] = Homo sapiens, HGT-1, 10 min, 10 minutes, read-out: T/C [%], percentage increase of the proton secretion compared to untreated controls
[4] = 0.03 mM substance of group (a) in combination with 0.3 mM theobromine, 10 minutes
[5] = 0.3 mM substance of group (a) in combination with 0.3 mM theobromine, 10 minutes

| Structure (SMILES) | T/C [%], percentage increase of the proton secretion compared to untreated controls (3 mM substance + 1% EtOH, 10 minutes stimulation) [%] | proton secretion in the HGT-1 cells (in words) | T/C [%], percentage increase of the proton secretion compared to untreated controls [1] [%] | T/C [%], percentage increase of the proton secretion compared to untreated controls [2] [%] | activation at 30 µM [3] [%] | activation at 300 µM [3] [%] | stimulation of proton secretion by 3 mM caffeine or 0.3 mM theobromine (in words) | induced gastric acid secretion (in words) | T/C [%], percentage increase of the proton secretion compared to untreated controls [4] [%] | T/C [%], percentage increase of the proton secretion compared to untreated controls [5] [%] | T/C [%], percentage increase of the proton secretion compared to untreated controls (0.003 mM substance of group (a) in combination with 0.3 mM theobromine, 10 minutes) [%] | activation at 3 µM (Homo sapiens, HGT-1, 10 min, 0.003 mM substance of group (a) alone, 10 minutes, read-out: T/C [%], percentage increase of the proton secretion compared to untreated controls) [%] | activation at 1000 µM (Homo sapiens, HGT-1, 10 min, 1 mM substance alone, 10 minutes stimulation, read-out: T/C [%], percentage increase of the proton secretion compared to untreated controls) [%] | T/C [%], percentage increase of the proton secretion compared to untreated controls (0.3 mM substance of group (b) + 1% EtOH, 10 minutes stimulation) [%] |
| --- | --- | --- | --- | --- | --- | --- | --- | --- | --- | --- | --- | --- | --- | --- |
| Cn1c(=O)c2c(ncn2C)n(C)c1=O [Caffeine, caffeine, reference compound] | 44.92 | stimulated |  |  |  |  |  |  |  |  |  |  |  |  |
| O=C1OC[C@@H](Cc2cccc(O)c2)[C@@H]1Cc1cccc(O)c1 [Enterolactone, enterolactone] |  |  | 23.41 | −18.25 | -2.76 | -27.3 | reduced or completely inhibited | highest reduction or complete inhibition |  |  |  |  |  |  |
| O=C1CC(c2ccc(O)c(O)c2)Oc2cc(O)cc(O)c21 (stereo not drawn) [Eriodictyol, eriodictyol] |  |  | 29.69 | −33.96 | -10.8 | -11.7 | reduced or completely inhibited | highest reduction or complete inhibition | 23.95 | −42.86 |  |  |  |  |
| COc1cc(C2CC(=O)c3c(O)cc(O)cc3O2)ccc1O (stereo not drawn) [HED, homoeriodictyol] |  |  | 37.99 | 20.18 | 12.7 | -3.66 | reduced or completely inhibited | highest reduction or complete inhibition | 13.79 | −16.92 | 21.56 | -8.04 |  |  |
| NCCc1c[nH]cn1 [Histamine, reference compound] |  |  |  |  |  |  |  |  |  |  |  |  | 27.4 |  |
| COc1cc(C[C@H]2CO[C@H](c3ccc(O)c(OC)c3)[C@H]2CO)ccc1O [Lariciresinol, lariciresinol] |  |  | 46.40 | 21.57 | 6.4 | -2.04 | reduced or completely inhibited | highest reduction or complete inhibition | 31.73 | 17.55 |  |  |  |  |
| COc1cc(C[C@H]2COC(=O)[C@@H]2Cc2ccc(O)c(OC)c2)ccc1O [Matairesinol, matairesinol] |  |  | 14.39 | −20.43 | -9.4 | -31.7 | reduced or completely inhibited | highest reduction or complete inhibition | 23.41 | −18.25 |  |  |  |  |
| Cn1cnc2c1c(=O)[nH]c(=O)n2C [Theobromine, theobromine, reference compound] |  | stimulated |  |  |  |  |  |  |  |  |  |  |  | 32.11 |
